Experimental data from patent US20240270741A1 (Cogent Biosciences, Inc., priority 2023, published 2024).

Biological target: FGFR2 (Homo sapiens, UniProt P21802)
Test: FGFR wild type enzyme assay (HTRF KinEASE-TK), FGFR2
Conditions: Enz FGFR2 (nM), FGFR2 wild type enzyme assay

FGFR2, sequence (P21802 399-821 limits assumed): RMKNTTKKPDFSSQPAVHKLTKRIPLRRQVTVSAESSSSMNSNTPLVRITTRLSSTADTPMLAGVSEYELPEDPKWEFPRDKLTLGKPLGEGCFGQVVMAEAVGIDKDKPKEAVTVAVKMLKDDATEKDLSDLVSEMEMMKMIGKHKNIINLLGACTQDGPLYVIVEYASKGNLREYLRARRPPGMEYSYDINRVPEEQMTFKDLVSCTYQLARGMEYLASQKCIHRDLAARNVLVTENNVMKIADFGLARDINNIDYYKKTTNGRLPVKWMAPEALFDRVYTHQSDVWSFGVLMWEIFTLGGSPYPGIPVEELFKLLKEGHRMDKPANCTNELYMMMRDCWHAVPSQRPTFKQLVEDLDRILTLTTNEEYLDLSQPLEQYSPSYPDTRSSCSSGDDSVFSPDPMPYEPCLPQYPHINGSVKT

SMILES | IC50
CC(=O)N1CCC(n2ncc(-c3cc(Sc4nc(C)c(F)cc4F)c4c(C#N)cnn4c3)c2C)CC1 [Example 399, 6-(1-(1-acetylpiperidin-4-yl)-5-methyl-1H-pyrazol-4-yl)-4-((3,5-difluoro-6-methylpyridin-2-yl)thio)pyrazolo[1,5-a]pyridine-3-carbonitrile] | 2 nM
CC(=O)N1CCC(n2cc(-c3cc(Sc4ccccc4C#N)c4c(C#N)cnn4c3)c(C)n2)CC1 [Example 400, 6-(1-(1-acetylpiperidin-4-yl)-3-methyl-1H-pyrazol-4-yl)-4-((2-cyanophenyl)thio)pyrazolo [1,5-a]pyridine-3-carbonitrile] | 3 nM
CC(=O)N1CCC(n2cc(-c3cc(Sc4ncccc4F)c4c(C#N)cnn4c3)c(C)n2)CC1 [Example 401, 6-(1-(1-acetylpiperidin-4-yl)-3-methyl-1H-pyrazol-4-yl)-4-((3-fluoropyridin-2-yl)thio)pyrazolo[1,5-a]pyridine-3-carbonitrile] | 7 nM
Cc1c(-c2cc(Sc3ccc(F)cc3C#N)c3c(C#N)cnn3c2)cnn1[C@H]1CCCN(S(C)(=O)=O)C1 [Example 402, (S)-4-((2-cyano-4-fluorophenyl)thio)-6-(5-methyl-1-(1-(methylsulfonyl)piperidin-3-yl)-1H-pyrazol-4-yl)pyrazolo[1,5-a]pyridine-3-carbonitrile] | 2 nM
Cc1c(-c2cc(Sc3ccc(F)cc3C#N)c3c(C#N)cnn3c2)cnn1C1CCN(S(C)(=O)=O)CC1 [Example 403, 4-((2-cyano-4-fluorophenyl)thio)-6-(5-methyl-1-(1-(methylsulfonyl)piperidin-4-yl)-1H-pyrazol-4-yl)pyrazolo[1,5-a]pyridine-3-carbonitrile] | 2 nM
N#Cc1cnn2cc(-c3cn([C@H]4CCCNC4)nn3)cc(Sc3ncccc3F)c12 [Example 404, (S)-4-((3-fluoropyridin-2-yl)thio)-6-(1-(piperidin-3-yl)-1H-1,2,3-triazol-4-yl)pyrazolo[1,5-a]pyridine-3-carbonitrile] | 15 nM
N#Cc1cc(F)ccc1Sc1cc(-c2ccc(N3CCOCC3)nc2)cn2ncc(C#N)c12 [Example 405, 4-((2-cyano-4-fluorophenyl)thio)-6-(6-morpholinopyridin-3-yl)pyrazolo[1,5-a]pyridine-3-carbonitrile] | 2 nM
Cc1c(-c2cc(Sc3ccccc3C#N)c3c(C#N)cnn3c2)cnn1C1CCN(C(=O)N(C)C)CC1 [Example 406, 4-(4-(3-cyano-4-((2-cyanophenyl)thio)pyrazolo [1,5-a]pyridin-6-yl)-5-methyl-1H-pyrazol-1-yl)-N,N-dimethylpiperidine-1-carboxamide] | 1 nM
CN(c1ccc(-c2cc(Sc3ccccc3C#N)c3c(C#N)cnn3c2)cn1)C1CCCNC1 (stereo not drawn) [Example 407, 4-(2-cyanophenyl)sulfanyl-6-[6-[methyl(3-piperidyl)amino]-3-pyridyl]pyrazolo[1,5-a]pyridine-3-carbonitrile] | 0.2 nM
CC(=O)N1CCC(n2ncc(-c3cc(Sc4nc(C)c(Cl)cc4F)c4c(C#N)cnn4c3)c2C)CC1 [Example 408, 6-(1-(1-acetylpiperidin-4-yl)-5-methyl-1H-pyrazol-4-yl)-4-((5-chloro-3-fluoro-6-methylpyridin-2-yl)thio)pyrazolo[1,5-a]pyridine-3-carbonitrile] | 2 nM
CC(=O)N1[C@@H]2CC[C@H]1C[C@H](n1cc(-c3cc(Sc4ccccc4C#N)c4c(C#N)cnn4c3)c(C)n1)C2 [Example 409, 6-(1-((1R,3s,5S)-8-acetyl-8-azabicyclo[3.2.1]octan-3-yl)-3-methyl-1H-pyrazol-4-yl)-4-((2-cyanophenyl)thio)pyrazolo [1,5-a]pyridine-3-carbonitrile] | 5 nM
CC(=O)N1[C@@H]2CC[C@H]1C[C@H](n1cc(-c3cc(Sc4ccc(F)cc4C#N)c4c(C#N)cnn4c3)c(C)n1)C2 [Example 410, 6-(1-((1R,3s,5S)-8-acetyl-8-azabicyclo[3.2.1]octan-3-yl)-3-methyl-1H-pyrazol-4-yl)-4-((2-cyano-4-fluorophenyl)thio)pyrazolo [1,5-a]pyridine-3-carbonitrile] | 26 nM
CC(=O)N1CC[C@H](n2ncc(-c3cc(Sc4ccc(F)cc4C#N)c4c(C#N)cnn4c3)c2C)C[C@@H]1C [Example 411, 6-(1-((2S,4S)-1-acetyl-2-methylpiperidin-4-yl)-5-methyl-1H-pyrazol-4-yl)-4-((2-cyano-4-fluorophenyl)thio)pyrazolo [1,5-a]pyridine-3-carbonitrile] | 2 nM
CC(=O)N1CC[C@@H](n2cc(-c3cc(Sc4ccc(F)cc4C#N)c4c(C#N)cnn4c3)cn2)C[C@H]1C [Example 412, 6-(1-((2R,4R)-1-acetyl-2-methylpiperidin-4-yl)-1H-pyrazol-4-yl)-4-((2-cyano-4-fluorophenyl)thio)pyrazolo [1,5-a]pyridine-3-carbonitrile] | 1 nM
Cc1nn([C@H]2CCCNC2)cc1-c1cc(Sc2ccccc2C#N)c2c(C#N)cnn2c1 [Example 413, (S)-4-((2-cyanophenyl)thio)-6-(3-methyl-1-(piperidin-3-yl)-1H-pyrazol-4-yl)pyrazolo[1,5-a]pyridine-3-carbonitrile] | 3 nM
Cc1nn([C@H]2CCCNC2)cc1-c1cc(Sc2ccc(F)cc2C#N)c2c(C#N)cnn2c1 [Example 414, (S)-4-((2-cyano-4-fluorophenyl)thio)-6-(3-methyl-1-(piperidin-3-yl)-1H-pyrazol-4-yl)pyrazolo[1,5-a]pyridine-3-carbonitrile] | 7 nM

The next lines start with the values.

IC50 | SMILES
7 nM | Cc1nn([C@H]2CCCNC2)cc1-c1cc(Sc2ncccc2F)c2c(C#N)cnn2c1 [Example 415, (S)-4-((3-fluoropyridin-2-yl)thio)-6-(3-methyl-1-(piperidin-3-yl)-1H-pyrazol-4-yl)pyrazolo[1,5-a]pyridine-3-carbonitrile]
4 nM | Cc1nn([C@H]2CCCN(C(=O)CO)C2)cc1-c1cc(Sc2ncccc2F)c2c(C#N)cnn2c1 [Example 420, (S)-4-((3-fluoropyridin-2-yl)thio)-6-(1-(1-(2-hydroxyacetyl)piperidin-3-yl)-3-methyl-1H-pyrazol-4-yl)pyrazolo[1,5-a]pyridine-3-carbonitrile]
5 nM | N#Cc1cnn2cc(-c3cnn([C@H]4CCNC4)c3)cc(Sc3ncccc3F)c12 [Example 421, (S)-4-((3-fluorop;yridin-2-yl)thio)-6-(1-(pyrrolidin-3-yl)-1H-pyrazol-4-yl)pyrazolo[1,5-a]pyridine-3-carbonitrile]
259 nM | CC(=O)N1CCC(n2ncc(-c3cc(Sc4ncccc4F)c4c(C#N)cnn4c3)c2CO)CC1 [Example 423, 6-(1-(1-acetylpiperidin-4-yl)-5-(hydroxymethyl)-1H-pyrazol-4-yl)-4-((3-fluoropyridin-2-yl)thio)pyrazolo[1,5-a]pyridine-3-carbonitrile]
46 nM | COCc1c(-c2cc(Sc3ccccc3C#N)c3c(C#N)cnn3c2)cnn1C1CCN(C)CC1 [Example 424, 4-((2-cyanophenyl)thio)-6-(5-(methoxymethyl)-1-(1-methylpiperidin-4-yl)-1H-pyrazol-4-yl)pyrazolo[1,5-a]pyridine-3-carbonitrile]
6 nM | CC(=O)N1CCC[C@H](n2cc(-c3cc(Sc4ccc(F)cc4C#N)c4c(C#N)cnn4c3)c(C)n2)C1 [Example 425, (S)-6-(1-(1-acetylpiperidin-3-yl)-3-methyl-1H-pyrazol-4-yl)-4-((2-cyano-4-fluorophenyl)thio)pyrazolo [1,5-a]pyridine-3-carbonitrile]
4 nM | Cc1nn([C@H]2CCCN(C(=O)CO)C2)cc1-c1cc(Sc2ccc(F)cc2C#N)c2c(C#N)cnn2c1 [Example 426, (S)-4-((2-cyano-4-fluorophenyl)thio)-6-(1-(1-(2-hydroxyacetyl)piperidin-3-yl)-3-methyl-1H-pyrazol-4-yl)pyrazolo[1,5-a]pyridine-3-carbonitrile]
0.4 nM | N#Cc1ccccc1Sc1cc(-c2cnn([C@H]3CCNC3)c2)cn2ncc(C#N)c12 [Example 427, (S)-4-((2-cyanophenyl)thio)-6-(1-(pyrrolidin-3-yl)-1H-pyrazol-4-yl)pyrazolo[1,5-a]pyridine-3-carbonitrile]
1 nM | CC(=O)N1CCC(n2cc(-c3cc(Sc4ncccc4F)c4c(C#N)cnn4c3)cn2)CC1 [Example 428, 6-(1-(1-acetylpiperidin-4-yl)-1H-pyrazol-4-yl)-4-((3-fluoropyridin-2-yl)thio)pyrazolo[1,5-a]pyridine-3-carbonitrile]
1 nM | CC(=O)N1CCC(n2cc(-c3cc(Sc4ccc(F)cc4C#N)c4c(C#N)cnn4c3)cn2)CC1 [Example 429, 6-(1-(1-acetylpiperidin-4-yl)-1H-pyrazol-4-yl)-4-((2-cyano-4-fluorophenyl)thio)pyrazolo [1,5-a]pyridine-3-carbonitrile]
10 nM | CN1CCC(n2cc(-c3cc(Sc4ncccc4F)c4c(C#N)cnn4c3)nn2)CC1 [Example 430, 4-((3-fluoropyridin-2-yl)thio)-6-(1-(1-methylpiperidin-4-yl)-1H-1,2,3-triazol-4-yl)pyrazolo[1,5-a]pyridine-3-carbonitrile]
2 nM | CC(=O)N1CCC[C@H](n2ncc(-c3cc(Sc4nc(C)c(F)cc4F)c4c(C#N)cnn4c3)c2C)C1 [Example 431, (S)-6-(1-(1-acetylpiperidin-3-yl)-5-methyl-1H-pyrazol-4-yl)-4-((3,5-difluoro-6-methylpyridin-2-yl)thio)pyrazolo[1,5-a]pyridine-3-carbonitrile]
3 nM | CC(=O)N1CCC(n2cc(-c3cc(Sc4ccc(F)cc4C#N)c4c(C#N)cnn4c3)c(C)n2)CC1 [Example 432, 6-(1-(1-acetylpiperidin-4-yl)-3-methyl-1H-pyrazol-4-yl)-4-((2-cyano-4-fluorophenyl)thio)pyrazolo [1,5-a]pyridine-3-carbonitrile]
5 nM | Cc1c(-c2cc(Sc3ccc(F)cc3C#N)c3c(C#N)cnn3c2)cnn1[C@H]1CCCN(c2ncccn2)C1 [Example 433, (S)-4-((2-cyano-4-fluorophenyl)thio)-6-(5-methyl-1-(1-(pyrimidin-2-yl)piperidin-3-yl)-1H-pyrazol-4-yl)pyrazolo[1,5-a]pyridine-3-carbonitrile]
